Molecular target: T1, HDAC6 (Homo sapiens, UniProt Q9UBN7)
T1 sequence (Q9UBN7 1-1215): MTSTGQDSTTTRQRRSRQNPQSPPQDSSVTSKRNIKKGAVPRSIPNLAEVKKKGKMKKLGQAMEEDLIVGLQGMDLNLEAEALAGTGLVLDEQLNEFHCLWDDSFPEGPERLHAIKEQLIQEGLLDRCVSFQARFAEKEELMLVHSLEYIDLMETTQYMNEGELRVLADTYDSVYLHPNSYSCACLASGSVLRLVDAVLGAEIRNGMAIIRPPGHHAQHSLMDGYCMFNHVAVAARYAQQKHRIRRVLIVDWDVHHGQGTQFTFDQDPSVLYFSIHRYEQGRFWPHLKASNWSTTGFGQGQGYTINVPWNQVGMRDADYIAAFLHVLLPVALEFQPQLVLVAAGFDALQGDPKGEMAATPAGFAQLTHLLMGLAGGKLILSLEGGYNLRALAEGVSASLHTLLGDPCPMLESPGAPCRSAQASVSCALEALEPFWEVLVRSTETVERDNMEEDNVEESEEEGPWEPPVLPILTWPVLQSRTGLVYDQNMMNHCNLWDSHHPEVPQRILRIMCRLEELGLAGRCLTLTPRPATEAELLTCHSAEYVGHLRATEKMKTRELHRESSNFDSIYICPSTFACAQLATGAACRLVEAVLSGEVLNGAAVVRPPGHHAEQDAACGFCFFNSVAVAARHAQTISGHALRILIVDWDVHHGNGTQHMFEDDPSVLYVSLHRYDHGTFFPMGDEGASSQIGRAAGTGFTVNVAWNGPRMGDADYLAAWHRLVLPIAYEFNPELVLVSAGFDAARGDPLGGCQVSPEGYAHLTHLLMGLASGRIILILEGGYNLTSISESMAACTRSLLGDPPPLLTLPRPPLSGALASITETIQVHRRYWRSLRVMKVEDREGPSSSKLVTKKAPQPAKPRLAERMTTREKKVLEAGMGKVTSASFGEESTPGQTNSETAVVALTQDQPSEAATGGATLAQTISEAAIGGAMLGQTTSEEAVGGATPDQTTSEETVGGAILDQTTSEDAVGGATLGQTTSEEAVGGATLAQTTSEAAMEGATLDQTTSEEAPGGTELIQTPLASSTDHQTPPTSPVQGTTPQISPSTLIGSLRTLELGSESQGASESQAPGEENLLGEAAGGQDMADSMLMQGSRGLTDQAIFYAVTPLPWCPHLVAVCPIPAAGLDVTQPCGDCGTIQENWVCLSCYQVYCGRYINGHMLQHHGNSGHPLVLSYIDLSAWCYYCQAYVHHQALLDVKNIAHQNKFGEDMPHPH
Assay: In vitro cell-based assay: acetylation levels of Alpha-Tubulin by Western Blot in MOLP8 cells
Design: endogenous in cells; host or cells: MOLP8
Conditions: 18 h, acetyl-alpha-tubulin relative band intensity, ACY-1215 1 μM = 100%
Method: In Vitro Cell-Based Assay
In order to determine the cellular activity of HDAC6 upon treatment with HDAC6 inhibitors, acetylation levels of Alpha-Tubulin (a HDAC6-specific substrate) were measured by Western Blot. For this, MOLP8 cells were seeded in 6-well plates at a cell density of 500.000 cells/well and treated with the selected compounds at 5 and 1 μM for 18 h at 37° C. and 5% CO2 in a humidified tissue culture incubator. Consecutively, cell pellets were collected and whole protein extracts prepared using RIPA buffer (SIGMA) supplemented with 1× protease inhibitors (cOmplete mini, Roche). Protein concentration was determined with Bradford's reagent (Bio-Rad) as per manufacturer's instructions, and 7 μg of total protein were loaded into pre-cast 10% NuPAGE Novex gels (Life Technologies). Gels were run in […] (Life Technologies) and proteins were transferred using the iBlot 2 Dry Blotting System (Life Technologies). Blots were subsequently rinsed in distilled water and stained with Ponceau S solution (SIGMA). Blots were then washed in distilled water to remove Ponceau excess and scanned with the Epson Perfection V600 Photo professional Scanner. After this, blots were de-stained and blocked in 5% milk/PBS-Tween 0.1% for 1 h at room temperature followed by incubation with anti-Acetyl-alpha Tubulin (SIGMA cat. #T7451, 1:10.000 dilution) and anti-Beta-actin (SIGMA, cat. #A5316, 1:2.000 dilution) primary antibodies in 5% milk/PBS-T 0.1%, overnight at 4° C. on a shaking platform. After incubation, blots were washed 3 times for 5 minutes each in PBS-Tween 0.5% and incubated with anti-mouse HRP-conjugated secondary antibody (Jackson Immuno Research, cat. #115-035-068) at 1:8.000 in 5% milk/PBS-Tween 0.1%, 1 h at room temperature on a shaking platform. After 3 washes of 5 minutes each with PBS-Tween 0.5% and 1 wash in PBS 1×, blots were developed with ECL Plus (GE Healthcare) and the chemiluminescent reaction imaged with the G:Box Chemi XRQ (Syngene) imaging system. WB and Ponceau images were analysed with ImageJ software, WB band intensities normalized by either total protein or Beta-actin content and made relative to ACY-1215 1 μM (equivalent to 100%). ACY-1215 is a HDAC6 inhibitor, and is also known as ricolinostat, with chemical name 2-(diphenylamino)-N-[7-(hydroxyamino)-7-oxoheptyl]-5-pyrimidinecarboxamide. Percentage of band intensities was classified as follows: […]

| Structure (SMILES) | Cellular activity @1 uM | Cellular activity @5 uM |
| --- | --- | --- |
| FC(F)(F)c1nc(-c2ccnc(-c3cc4c(ccn4Cc4cccnc4)cn3)c2)no1 [Example 1av, 3-(2-(1-(Pyridin-3-ylmethyl)-1H-pyrrolo[3,2-c]pyridin-6-yl)pyridin-4-yl)-5-(trifluoromethyl)-1,2,4-oxadiazole] | + (50-150) | ++ (150-300) |
| CN1CCC(CNC(=O)c2ccc(-c3cc(-c4noc(C(F)(F)F)n4)ccn3)nc2)CC1 [Example 1an, N-((1-Methylpiperidin-4-yl)methyl)-4′-(5-(trifluoromethyl)-1,2,4-oxadiazol-3-yl)-[2,2′-bipyridine]-5-carboxamide] | + (50-150) | + (50-150) |
| FC(F)(F)CN1CCC(n2ccc3cnc(-c4cc(-c5noc(C(F)(F)F)n5)ccn4)cc32)CC1 [Example 1ao, 3-(2-(1-(1-(2,2,2-Trifluoroethyl)piperidin-4-yl)-1H-pyrrolo[3,2-c]pyridin-6-yl)pyridin-4-yl)-5-(trifluoromethyl)-1,2,4-oxadiazole] | + (50-150) | ++ (150-300) |
| FC(F)(F)c1nc(-c2ccnc(-c3ccc(OCCCn4cccn4)cn3)c2)no1 [Example 1ag, 3-(5′-(3-(1H-Pyrazol-1-yl)propoxy)-[2,2′-bipyridin]-4-yl)-5-(trifluoromethyl)-1,2,4-oxadiazole] | − (<50) | + (50-150) |
| CCCCN(C(=O)CCOC)c1ccc(-c2cc(-c3noc(C(F)(F)F)n3)ccn2)nc1 [Example 1i, N-Butyl-3-methoxy-N-(4′-(5-(trifluoromethyl)-1,2,4-oxadiazol-3-yl)-[2,2′-bipyridin]-5-yl)propanamide] | − (<50) | + (50-150) |
| CCCn1cc(COC)c2cc(-c3cc(-c4noc(C(F)(F)F)n4)ccn3)ncc21 [Example 1ai, 3-(2-(3-(Methoxymethyl)-1-propyl-1H-pyrrolo[2,3-c]pyridin-5-yl)pyridin-4-yl)-5-(trifluoromethyl)-1,2,4-oxadiazole] | − (<50) | + (50-150) |
| Cn1ccc2cc(-c3cc(-c4noc(C(F)(F)F)n4)ccn3)ncc21 [Example 1at, 3-(2-(1-Methyl-1H-pyrrolo[2,3-c]pyridin-5-yl)pyridin-4-yl)-5-(trifluoromethyl)-1,2,4-oxadiazole] | − (<50) | + (50-150) |
| Cn1cc(Cn2ccc3cnc(-c4cc(-c5noc(C(F)(F)F)n5)ccn4)cc32)cn1 [Example 1aad, 3-(2-(1-((1-Methyl-1H-pyrazol-4-yl)methyl)-1H-pyrrolo[3,2-c]pyridin-6-yl)pyridin-4-yl)-5-(trifluoromethyl)-1,2,4-oxadiazole] | + (50-150) | ++ (150-300) |
| COCCn1c(C(=O)N(C)C)cc2cc(-c3cc(-c4noc(C(F)(F)F)n4)ccn3)ncc21 [Example 1ar, 1-(2-Methoxyethyl)-N,N-dimethyl-5-(4-(5-(trifluoromethyl)-1,2,4-oxadiazol-3-yi)pyridin-2-yl)-1H-pyrrolo[2,3-c]pyridine-2-carboxamide] | + (50-150) | + (50-150) |
| COCCn1cc(-c2cn[nH]c2)c2cc(-c3cc(-c4noc(C(F)(F)F)n4)ccn3)ncc21 [Example 1as, 3-(2-(1-(2-Methoxyethyl)-3-(1H-pyrazol-4-yl)-1H-pyrrolo[2,3-c]pyridin-5-yl)pyridin-4-yl)-5-(trifluoromethyl)-1,2,4-oxadiazole] | + (50-150) | + (50-150) |
| O=C(CCc1ccccc1)Nc1ccnc(-c2cc(-c3noc(C(F)(F)F)n3)ccn2)c1 [Example 1ad, 3-Phenyl-N-(4′-(5-(trifluoromethyl)-1,2,4-oxadiazol-3-yl)-[2,2′-bipyridin]-4-yl)propanamide] | + (50-150) | + (50-150) |
| Cn1ccnc1CCn1nc(-c2cc(-c3noc(C(F)(F)F)n3)ccn2)c2ncccc21 [Example 1aac] | + (50-150) | ++ (150-300) |
| CN1CCC(CNC(=O)c2ccnc(-c3cc(-c4noc(C(F)(F)F)n4)ccn3)c2)CC1 [Example 1am, N-((1-Methylpiperidin-4-yl)methyl)-4′-(5-(trifluoromethyl)-1,2,4-oxadiazol-3-yl)-[2,2′-bipyridine]-4-carboxamide] | + (50-150) | + (50-150) |

More lines, now with the values ahead:

| Cellular activity @1 uM | Cellular activity @5 uM | Structure (SMILES) |
| --- | --- | --- |
| + (50-150) | + (50-150) | FC(F)(F)c1nc(-c2ccnc(-n3ncc4cccnc43)c2)no1 [Example 6, 3-(2-(1H-Pyrazolo[3,4-b]pyridin-1-yl)pyridin-4-yl)-5-(trifluoromethyl)-1,2,4-oxadiazole] |
| − (<50) | + (50-150) | CCN(CC)CCCN(C)c1ccc(-c2cc(-c3noc(C(F)(F)F)n3)ccn2)nc1 [Example 1n, N^1,N^1-Diethyl-N^3-methyl-N^3-(4′-(5-(trifluoromethyl)-1,2,4-oxadiazol-3-yl)-2,2′-bipyridin-5-yl)propane-1,3-diamine] |
| − (<50) | + (50-150) | FC1(F)CCN(CCOc2ccnc(-c3cc(-c4noc(C(F)(F)F)n4)ccn3)c2)CC1 [Example 1s, 3-(4′-(2-(4,4-Difluoropiperidin-1-yl)ethoxy)-[2,2′-bipyridin]-4-yl)-5-(trifluoromethyl)-1,2,4-oxadiazole] |
| − (<50) | + (50-150) | CN(C)CCCOc1ccc(-c2cc(-c3noc(C(F)(F)F)n3)ccn2)nc1 [Example 7, N,N-Dimethyl-3-((4′-(5-(trifluoromethyl)-1,2,4-oxadiazol-3-yl)-[2,2′-bipyridin]-5-yl)oxy)propan-1-amine] |
| − (<50) | + (50-150) | CNCCCOc1ccc(-c2cc(-c3noc(C(F)(F)F)n3)ccn2)nc1 [Example 2, N-Methyl-3-((4′-(5-(trifluoromethyl)-1,2,4-oxadiazol-3-yl)-[2,2′-bipyridin]-5-yl)oxy)propan-1-amine] |
| − (<50) | ++ (150-300) | CCN(CCCOc1ccc(-c2cc(-c3noc(C(F)(F)F)n3)ccn2)nc1)CCc1ccccc1 [Example 1p, N-Ethyl-N-phenethyl-3-((4′-(5-(trifluoromethyl)-1,2,4-oxadiazol-3-yl)-[2,2′-bipyridin]-5-yl)oxy)propan-1-amine] |
